Results from the supplement of paper PMC13380429.

Key:
HepG2 [1] = assay: cell viability relative to DMSO; higher = less toxic; conditions: 72 h
Caco-2 [2] = assay: as above; conditions: 72 h
Vero E6 [3] = assay: as above; conditions: 72 h
U2OS [4] = assay: as above; conditions: 72 h
Calu-3 [5] = assay: as above; conditions: 72 h
A549-ACE2 [6] = assay: drug-induced phospholipidosis relative to tamoxifen; higher = more phospholipidosis
[7] = system: A549-ACE2 infected with SARS-CoV-2; assay: SARS-CoV-2 infection rate relative to DMSO; higher = more infection; conditions: 24 h
HepG2 [8] = assay: relative viability EC50 (midpoint between 100% and the lowest measured viability); higher = less toxic; conditions: 72 h
Vero E6 [9] = assay: as above; conditions: 72 h
U2OS [10] = assay: as above; conditions: 72 h
Calu-3 [11] = assay: as above; conditions: 72 h
[12] = system: A549-ACE2 infected with SARS-CoV-2; assay: cell count relative to DMSO; higher = less toxic; conditions: 24 h
HepG2 [13] = assay: drug sensitivity score (DSS) for viability; higher = more toxic; extreme values may be limits of the assay; conditions: 72 h
Caco-2 [14] = assay: as above; conditions: 72 h
Vero E6 [15] = assay: as above; conditions: 72 h
U2OS [16] = assay: as above; conditions: 72 h
Calu-3 [17] = assay: as above; conditions: 72 h
[18] = system: A549-ACE2 infected with SARS-CoV-2; assay: morphology score (similarity to uninfected cells); higher = more like uninfected cells; conditions: 24 h
A549-ACE2 [19] = assay: phospholipidosis EC50; higher = less potent phospholipidosis inducer; conditions: 24 h
Caco-2 [20] = assay: relative viability EC50 (midpoint between 100% and the lowest measured viability); higher = less toxic; conditions: 72 h

CCCCCC(=O)O[C@]1(C(C)=O)CC[C@H]2[C@@H]3CCC4=CC(=O)CC[C@]4(C)[C@H]3CC[C@@]21C [17-hydroxyprogesterone-caproate]
cell viability (HepG2 [1]; 1 nM): 97.1%
cell viability (HepG2 [1]; 10 nM): 96.6%
cell viability (HepG2 [1]; 100 nM): 98%
cell viability (HepG2 [1]; 1000 nM): 97.6%
cell viability (HepG2 [1]; 10000 nM): 94.8%
cell viability (Caco-2 [2]; 1 nM): 92.7%
cell viability (Caco-2 [2]; 10 nM): 95.9%
cell viability (Caco-2 [2]; 100 nM): 107%
cell viability (Caco-2 [2]; 1000 nM): 92.8%
cell viability (Caco-2 [2]; 10000 nM): 64.7%
cell viability (Vero E6 [3]; 1 nM): 97.8%
cell viability (Vero E6 [3]; 10 nM): 103%
cell viability (Vero E6 [3]; 100 nM): 95.1%
cell viability (Vero E6 [3]; 1000 nM): 95.4%
cell viability (Vero E6 [3]; 10000 nM): 103%
cell viability (U2OS [4]; 1 nM): 98.1%
cell viability (U2OS [4]; 10 nM): 95.7%
cell viability (U2OS [4]; 100 nM): 99.7%
cell viability (U2OS [4]; 1000 nM): 99.4%
cell viability (U2OS [4]; 10000 nM): 95.9%
cell viability (Calu-3 [5]; 1 nM): 86.9%
cell viability (Calu-3 [5]; 10 nM): 99%
cell viability (Calu-3 [5]; 100 nM): 100%
cell viability (Calu-3 [5]; 1000 nM): 88.6%
cell viability (Calu-3 [5]; 10000 nM): 99.5%
drug-induced phospholipidosis (A549-ACE2 [6]; 0.3 µM, 24 h): 6.66%
drug-induced phospholipidosis (A549-ACE2 [6]; 0.3 µM, 48 h): 5.77%
drug-induced phospholipidosis (A549-ACE2 [6]; 0.3 µM, 72 h): 6.76%
drug-induced phospholipidosis (A549-ACE2 [6]; 0.833333 µM, 24 h): 6.09%
drug-induced phospholipidosis (A549-ACE2 [6]; 0.833333 µM, 48 h): 4.75%
drug-induced phospholipidosis (A549-ACE2 [6]; 0.833333 µM, 72 h): 2.38%
drug-induced phospholipidosis (A549-ACE2 [6]; 3.33333 µM, 24 h): 4.63%
drug-induced phospholipidosis (A549-ACE2 [6]; 3.33333 µM, 48 h): 0.98%
drug-induced phospholipidosis (A549-ACE2 [6]; 3.33333 µM, 72 h): 2.24%
drug-induced phospholipidosis (A549-ACE2 [6]; 6.66667 µM, 24 h): 8.81%
drug-induced phospholipidosis (A549-ACE2 [6]; 6.66667 µM, 48 h): 3.88%
drug-induced phospholipidosis (A549-ACE2 [6]; 6.66667 µM, 72 h): 4.3%
drug-induced phospholipidosis (A549-ACE2 [6]; 10 µM, 24 h): 8.05%
drug-induced phospholipidosis (A549-ACE2 [6]; 10 µM, 48 h): 3.43%
drug-induced phospholipidosis (A549-ACE2 [6]; 10 µM, 72 h): 4.77%
drug-induced phospholipidosis (A549-ACE2 [6]; 30 µM, 24 h): 21.5%
drug-induced phospholipidosis (A549-ACE2 [6]; 30 µM, 48 h): 9.55%
drug-induced phospholipidosis (A549-ACE2 [6]; 30 µM, 72 h): 13.6%
SARS-CoV-2 infection rate ([7]; 0.3 µM): 95%
SARS-CoV-2 infection rate ([7]; 3 µM): 88%
SARS-CoV-2 infection rate ([7]; 10 µM): 81%
SARS-CoV-2 infection rate ([7]; 30 µM): 34%
relative viability EC50 (HepG2 [8]): > 10000 nM
relative viability EC50 (Vero E6 [9]): > 10000 nM
relative viability EC50 (U2OS [10]): > 10000 nM
relative viability EC50 (Calu-3 [11]): > 10000 nM
cell count ([12]; 0.3 µM): 103%
cell count ([12]; 3 µM): 104%
cell count ([12]; 10 µM): 106%
cell count ([12]; 30 µM): 104%
drug sensitivity score (HepG2 [13]): 0
drug sensitivity score (Caco-2 [14]): 2.8
drug sensitivity score (Vero E6 [15]): 0
drug sensitivity score (U2OS [16]): 0
drug sensitivity score (Calu-3 [17]): 0
morphology score ([18]; 0.3 µM): 0.25
morphology score ([18]; 3 µM): 0.34
morphology score ([18]; 10 µM): 0.47
morphology score ([18]; 30 µM): 0.79

COc1cc(C(=O)NC2CCN(C)CC2)c(F)cc1Nc1ncc2c(n1)N(C1CCCC1)CC(F)(F)C(=O)N2C [TAK-960]
phospholipidosis EC50 (A549-ACE2 [19]): 3200 nM
drug sensitivity score (HepG2 [13]): 21.8
drug sensitivity score (Caco-2 [14]): 10.9
drug sensitivity score (Vero E6 [15]): 12.5
drug sensitivity score (U2OS [16]): 12.5
drug sensitivity score (Calu-3 [17]): 4.3
morphology score ([18]; 0.1 µM): -0.06
morphology score ([18]; 0.3 µM): -0.01
morphology score ([18]; 1 µM): 0.15
morphology score ([18]; 3 µM): 0.58

CC[C@@]1([C@H]2O[C@H]([C@H]3O[C@@](O)(CO)[C@H](C)C[C@@H]3C)C[C@H]2C)CC[C@H]([C@@]2(C)CC[C@]3(C[C@H](O)[C@@H](C)[C@@H]([C@H](C)[C@H](OC)[C@@H](C)C(=O)O)O3)O2)O1 [MONENSIN SODIUM]
cell viability (HepG2 [1]; 1 nM): 94.6%
cell viability (HepG2 [1]; 10 nM): 107%
cell viability (HepG2 [1]; 100 nM): 91.8%
cell viability (HepG2 [1]; 1000 nM): 82.9%
cell viability (HepG2 [1]; 10000 nM): 26.2%
cell viability (Caco-2 [2]; 1 nM): 93.9%
cell viability (Caco-2 [2]; 10 nM): 93.4%
cell viability (Caco-2 [2]; 100 nM): 109%
cell viability (Caco-2 [2]; 1000 nM): 56.9%
cell viability (Caco-2 [2]; 10000 nM): 20.9%
cell viability (Vero E6 [3]; 1 nM): 96.7%
cell viability (Vero E6 [3]; 10 nM): 103%
cell viability (Vero E6 [3]; 100 nM): 95.6%
cell viability (Vero E6 [3]; 1000 nM): 103%
cell viability (Vero E6 [3]; 10000 nM): 102%
cell viability (U2OS [4]; 1 nM): 99.5%
cell viability (U2OS [4]; 10 nM): 96.2%
cell viability (U2OS [4]; 100 nM): 99.3%
cell viability (U2OS [4]; 1000 nM): 97.1%
cell viability (U2OS [4]; 10000 nM): 35.4%
cell viability (Calu-3 [5]; 1 nM): 99%
cell viability (Calu-3 [5]; 10 nM): 93.1%
cell viability (Calu-3 [5]; 100 nM): 89.9%
cell viability (Calu-3 [5]; 1000 nM): 68%
cell viability (Calu-3 [5]; 10000 nM): 36.9%
drug-induced phospholipidosis (A549-ACE2 [6]; 0.3 µM, 24 h): -1.18%
drug-induced phospholipidosis (A549-ACE2 [6]; 0.3 µM, 48 h): 5.4%
drug-induced phospholipidosis (A549-ACE2 [6]; 0.3 µM, 72 h): 6.27%
drug-induced phospholipidosis (A549-ACE2 [6]; 0.833333 µM, 24 h): -1.15%
drug-induced phospholipidosis (A549-ACE2 [6]; 0.833333 µM, 48 h): 3.73%
drug-induced phospholipidosis (A549-ACE2 [6]; 0.833333 µM, 72 h): 4.79%
drug-induced phospholipidosis (A549-ACE2 [6]; 3.33333 µM, 24 h): 0.94%
drug-induced phospholipidosis (A549-ACE2 [6]; 3.33333 µM, 48 h): 5.09%
drug-induced phospholipidosis (A549-ACE2 [6]; 3.33333 µM, 72 h): 7.82%
drug-induced phospholipidosis (A549-ACE2 [6]; 6.66667 µM, 24 h): 1.15%
drug-induced phospholipidosis (A549-ACE2 [6]; 6.66667 µM, 48 h): -3.84%
drug-induced phospholipidosis (A549-ACE2 [6]; 10 µM, 24 h): -4.98%
drug-induced phospholipidosis (A549-ACE2 [6]; 10 µM, 48 h): -2.31%
drug-induced phospholipidosis (A549-ACE2 [6]; 30 µM, 24 h): -12.7%
drug-induced phospholipidosis (A549-ACE2 [6]; 30 µM, 48 h): -14.7%
SARS-CoV-2 infection rate ([7]; 0.3 µM): 50%
SARS-CoV-2 infection rate ([7]; 3 µM): 61%
SARS-CoV-2 infection rate ([7]; 10 µM): 25%
SARS-CoV-2 infection rate ([7]; 30 µM): 17%
relative viability EC50 (HepG2 [8]): 1610 nM
relative viability EC50 (Caco-2 [20]): 934 nM
relative viability EC50 (Vero E6 [9]): > 10000 nM
relative viability EC50 (U2OS [10]): 2830 nM
relative viability EC50 (Calu-3 [11]): 789 nM
cell count ([12]; 0.3 µM): 114%
cell count ([12]; 3 µM): 108%
cell count ([12]; 10 µM): 115%
cell count ([12]; 30 µM): 119%
drug sensitivity score (HepG2 [13]): 6.8
drug sensitivity score (Caco-2 [14]): 9.7
drug sensitivity score (Vero E6 [15]): 0
drug sensitivity score (U2OS [16]): 3.9
drug sensitivity score (Calu-3 [17]): 7.5
morphology score ([18]; 0.3 µM): 0.72
morphology score ([18]; 3 µM): 0.85
morphology score ([18]; 10 µM): 0.83
morphology score ([18]; 30 µM): 0.82
